Experimental data: patent US20230148450A9, “BICYCLIC HETEROARYL COMPOUNDS AND USES THEREOF” (Revolution Medicines, Inc., priority 2019, published 2023)
Where a name gives a salt, the structure may show the parent alone. Read-outs that look alike come from different tables or passages of the source.

How the values were obtained:
[1] = biological target: T1, SOS1-mediated exchange of KRAS-4B:GDP to KRAS-4B:GTP (Homo sapiens, UniProt Q07889); experiment: Bodipy-FL-GTP Association Assay; format: biochemical; conditions: SOS1 GEF activity on KRAS-4B, 22° C.
T1 construct: SOS1 (Cytoskeleton Inc., Cat. CS-GE02); purchased Cytoskeleton Inc. CS-GE02 (SOS1); CSRS03 (KRAS4-B)
T1 sequence (Q07889 564-1049 limits assumed): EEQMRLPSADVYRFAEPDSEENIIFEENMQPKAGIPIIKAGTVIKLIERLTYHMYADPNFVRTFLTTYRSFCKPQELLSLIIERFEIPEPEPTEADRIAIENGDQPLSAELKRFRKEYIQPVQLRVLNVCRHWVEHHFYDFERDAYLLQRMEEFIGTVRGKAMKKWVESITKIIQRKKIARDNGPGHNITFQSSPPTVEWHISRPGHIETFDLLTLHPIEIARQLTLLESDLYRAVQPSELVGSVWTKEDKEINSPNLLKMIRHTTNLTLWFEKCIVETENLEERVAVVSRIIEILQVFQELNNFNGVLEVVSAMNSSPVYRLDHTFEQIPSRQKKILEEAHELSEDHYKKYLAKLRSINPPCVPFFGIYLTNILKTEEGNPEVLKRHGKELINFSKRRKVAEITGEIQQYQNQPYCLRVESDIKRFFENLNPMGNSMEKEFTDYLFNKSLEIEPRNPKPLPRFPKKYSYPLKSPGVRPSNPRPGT
Protocol: A low IC50 value for a given compound is indicative of high potency of said compound in inhibiting the guanine nucleotide exchange factor (GEF) activity of SOS1 on KRAS-4B in this assay setting. Reagents: BODIPY FL GTP (ThermoFisher Scientific, Cat. G12411); KRAS4-B (Cytoskeleton Inc., Cat. CSRS03); SOS1 (Cytoskeleton Inc., Cat. CS-GE02); 2× Assay Buffer: 40 mM Tris-HCl, pH 7.5; 100 mM NaCl; 20 mM MgCl2; 0.1 mg/mL BSA; 0.02% NP-40 Assay Procedure: Test compounds were dissolved in DMSO to create 20 mM master stocks. The stocks were diluted in a 3× dilution series in 100% DMSO to achieve 100× compound stocks. A 1 μl spot of each test compound stock was delivered to two adjacent wells of a 96-well assay plate prior to running the assay. Reaction Mix preparation: The following were mixed in order at room temperature to obtain the “Reaction Mix” (5.75 mL 2× Exchange Buffer; 3.22 mL MilliQ ddH2O; 3 μL 5 mM BODIPY FL GTP; 230 μL 50 μM KRAS-4B; 9.203 mL Total volume. Reaction initiation: 80 μL of Reaction Mix was pipetted into each well of a half-area black 96-well plate (Corning, Cat. 3686) containing either a 1 μL spot of DMSO or a 1 μL spot test compound at the concentrations listed above. 20 μL of 1 μM SOS1 was then added to each well to initiate the reaction. For the no GEF control wells this was replaced with 1× exchange buffer. Kinetic measurement: The reaction was monitored in a SpectraMax M2 Microplate Reader (Molecular Devices) under the following protocol: 5 second rapid circular mixing before first read; 61 readings, 30 seconds apart; Assay temperature: 22° C.; Excitation wavelength: 485 nm; Emission wavelength: 513 nm. Data Analysis: The V max values for the SOS1-mediated BODIPY FL GTP exchange curves in the presence of test compounds were normalized to the most dilute test sample columns or DMSO only control wells to give the % Activity for each concentration of test compound. Plots of % Activity vs. the Log10 of the compound concentration were fit by non-linear regression to a 4-parameter logistic model.

[2] = biological target: T2, SOS1 catalytic domain (residues 564-1049) (Homo sapiens, UniProt Q07889); experiment: Binding affinity to SOS1 using Surface Plasmon Resonance (SPR); conditions: avi-tagged SOS1 catalytic domain immobilized on sensor chip; read-out: SOS1 SPR Equilibrium Kd
T2 construct: SOS1 catalytic domain (residues 564-1049) immobilized on a sensor chip
T2 sequence (Q07889 564-1049): T1 sequence (Q07889 564-1049 limits assumed)
Outline: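 Avi-tagged human SOS1 catalytic domain (564-1049) captured on streptavidin chip (~6000 RU); compounds flowed at 50 μL/min, 5 μM to 4.9 nM in ten 2-fold steps, in HEPES/NaCl/P20 buffer with 2% DMSO, double-referenced. Kd from end-of-association response plotted versus concentration.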

[3] = biological target: T3, SOS1 nucleotide exchange of KRAS (catalytic domain of SOS1, residues 564-1049; wild-type KRAS) (Homo sapiens, UniProt Q07889); experiment: Mode of Action Assay: Inhibition of SOS1 Nucleotide Exchange Activity (TR-FRET); format: biochemical; conditions: TR-FRET signal
T3 construct: tagless catalytic domain of SOS1 (residues 564-1049)
T3 sequence (Q07889 564-1049): T1 sequence (Q07889 564-1049 limits assumed)
Outline: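 SOS1 catalytic domain (564-1049, 100 nM as diluted) preincubated 20 min with compounds (100 μM–1.7 nM, 11-point 3-fold) in HEPES pH 7.5 buffer with MgCl2. Then mixed with avi-KRAS(1-169), Streptavidin-Tb and EDA-GTP-DY-647P1 for 30 min at room temperature. TR-FRET normalized to DMSO and positive control, triplicates; IC50 by four-parameter logistic fit.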

[4] = system: cellular pERK in PC-9 cells (EGFR Ex19Del); experiment: Potency Assay: pERK; format: cell-based; conditions: Homo sapiens, read-out: SOS1 pERK IC50
Outline: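 Cells plated the day before and treated 1 h at 37 °C with 10-point 3-fold dilutions in duplicate, top 10 μM. pERK1/2 in lysates read by AlphaLISA SureFire Ultra. IC50 from 4-parameter sigmoidal fit of signal vs log concentration.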

[5] = PC-9 cells (EGFR Ex19Del), 1 hour incubation, AlphaLISA p-ERK1/2

Row | Compound | IC50 [1] [nM] | Kd [2] [nM] | IC50 [3] [nM] | IC50 [4, 5] [nM] | IC50 ([4]; PC-9, 1 h) [nM]
1 | C[C@@H](Nc1nc(C2CC2)nn2cc(C3=CCNCC3)cc12)c1cccc(C(F)(F)F)c1 [Example 20] | > 5000 |  |  |  | 
2 | C[C@@H](Nc1ncnc2sc(C3(O)CCC(O)CC3)cc12)c1cc(N)cc(C(F)(F)F)c1 (stereo partly drawn) [Example 7, 1-(4-{[(1R)-1-[3-amino-5-(trifluoromethyl)phenyl]ethyl]amino}thieno[2,3-d]pyrimidin-6-yl)cyclohexane-1,4-diol] | < 1000 |  |  |  | 
3 | C[C@@H](Nc1ncnc2cc(C3=CCNCC3)sc12)c1cc(N)cc(C(F)(F)F)c1 [Example 9, N-[(1R)-1-[3-amino-5-(trifluoromethyl)phenyl]ethyl]-6-(1,2,3,6-tetrahydropyridin-4-yl)thieno[3,2-d]pyrimidin-4-amine] | < 1000 |  |  |  | 
4 | C[C@@H](Nc1nccn2cc(C(=O)N3CCN(C)CC3)nc12)c1cc(N)cc(C(F)(F)F)c1 [Example 10, N-[(1R)-1-[3-amino-5-(trifluoromethyl)phenyl]ethyl]-2-(4-methylpiperazine-1-carbonyl)imidazo[1,2-a]pyrazin-8-amine] | 1000 to 5000 |  |  |  | 
5 | CC(=O)N1CCN(c2cc3c(N[C@H](C)c4cccc(C(F)(F)F)c4)ncnn3c2)CC1 [Example 27] | < 1000 |  |  |  | 
6 | Cc1cn2nc(C(=O)N3CCOCC3)cc2c(N[C@H](C)c2cccc(C(F)(F)F)c2)n1 [Example 24] | > 5000 |  |  |  | 
7 | CC(=O)N1CC=C(c2cc3c(N[C@H](C)c4cc(N)cc(C(F)(F)F)c4)ncnn3c2)CC1 [Example 13, 1-[4-[4-[[(1R)-1-[3-amino-5-(trifluoromethyl)phenyl]ethyl]amino]pyrrolo[2,1-f][1,2,4]triazin-6-yl]-3,6-dihydro-2H-pyridin-1-yl]ethanone] | 1000 to 5000 |  |  |  | 
8 | Cc1nc(N[C@H](C)c2cccc(C(F)(F)F)c2)c2sc([C@]3(O)CC[C@@H](O)CC3)cc2n1 [Example 5, trans-1-(2-methyl-4-{[(1R)-1-[3-(trifluoromethyl)phenyl]ethyl]amino}thieno[3,2-d]pyrimidin-6-yl) cyclohexane-1,4-diol] | > 5000 |  |  |  | 
9 | C[C@@H](Nc1ncnn2cc(C3=CCNCC3)cc12)c1cccc(C(F)(F)F)c1 [Example 14] | 1000 to 5000 |  |  |  | 
10 | COCC(=O)N1CC=C(c2cc3c(N[C@H](C)c4cc(N)cc(C(F)(F)F)c4)ncnc3s2)CC1 [Example 4, 1-[4-(4-{[(1R)-1-[3-amino-5-(trifluoromethyl)phenyl]ethyl]amino}thieno[2,3-d]pyrimidin-6-yl)-1,2,3,6-tetrahydropyridin-1-yl]-2-methoxyethan-1-one] | 1000 to 5000 |  |  |  | 
11 | Cc1cn2nc(C(=O)N3CCN4CCC4C3)cc2c(N[C@H](C)c2cc(N)cc(C(F)(F)F)c2)n1 (stereo partly shown) [Example 82] |  | ≤ 400 | < 1000 | < 1000 | 
12 | C[C@@H](Nc1ncnn2cc(C(=O)N3CCOCC3)cc12)c1cc(N)cc(C(F)(F)F)c1 [Example 50, N-[(1R)-1-[3-amino-5-(trifluoromethyl)phenyl]ethyl]-6-(morpholine-4-carbonyl)pyrrolo[2,1-f][1,2,4]triazin-4-amine] |  | > 400 | < 1000 | < 1000 | 
13 | Cc1nc(N[C@H](C)c2cc(N)cc(C(F)(F)F)c2)c2cc(C(=O)N3CC(O)C3)cn2n1 [Example 33, [4-[[(1R)-1-[3-amino-5-(trifluoromethyl)phenyl]ethyl]amino]-2-methyl-pyrrolo[2,1-f][1,2,4]triazin-6-yl]-(3-hydroxyazetidin-1-yl)methanone] |  | > 400 | < 1000 | < 1000 | 
14 | Cc1nc(N[C@H](C)c2cc(N)cc(C(F)(F)F)c2)c2cc(C(=O)N3CCN(C)CC3)cn2n1 [Example 36, (R)-(4-((1-(3-amino-5-(trifluoromethyl)phenyl)ethyl)amino)-2-methylpyrrolo[2,1-f][1,2,4]triazin-6-yl)(4-methylpiperazin-1-yl)methanone] |  | ≤ 400 | < 1000 | < 1000 | 
15 | C[C@@H](Nc1ncnc2[nH]c(C(=O)N3CCOCC3)nc12)c1cc(N)cc(C(F)(F)F)c1 [Example 57, N-[(1R)-1-[3-amino-5-(trifluoromethyl)phenyl]ethyl]-8-(morpholine-4-carbonyl)-9H-purin-6-amine] |  | ≤ 400 | < 1000 | < 1000 | 
16 | Cc1nc(N[C@H](C)c2cc(N)cc(C(F)(F)F)c2)c2cc(C3(O)CC(O)C3)cn2n1 (stereo partly drawn) [Example 35, (R)-1-(4-((1-(3-amino-5-(trifluoromethyl)phenyl)ethyl)amino)-2-methylpyrrolo[2,1-f][1,2,4]triazin-6-yl)cyclobutane-1,3-diol] |  | ≤ 400 | > 1000 | > 1000 | 
17 | C[C@@H](Nc1nc(Cl)nc2c1nc(C(=O)N1CCOCC1)n2C)c1cccc(C(F)(F)CO)c1 [Example 103, (R)-(2-chloro-6-((1-(3-(1,1-difluoro-2-hydroxyethyl)phenyl)ethyl)amino)-9-methyl-9H-purin-8-yl)(morpholino)methanone] |  | > 400 | < 1000 | < 1000 | 
18 | C[C@@H](Nc1ncnc2sc(C(=O)N3CCOCC3)cc12)c1cccc(C(F)(F)CO)c1 [Example 83, (R)-(4-((1-(3-(1,1-difluoro-2-hydroxyethyl)phenyl)ethyl)amino)thieno[2,3-d]pyrimidin-6-yl)(morpholino)methanone] |  | ≤ 400 | < 1000 | < 1000 | 
19 | C[C@@H](Nc1nccc2nc(C(=O)N3CCNCC3)cn12)c1cccc(C(F)F)c1F [Example 85, [5-[[(1R)-1-[3-(difluoromethyl)-2-fluoro-phenyl]ethyl]amino]imidazo[1,2-c]pyrimidin-2-yl]-piperazin-1-yl-methanone hydrochloride] |  | ≤ 400 | < 1000 |  | < 1000
20 | C[C@@H](Nc1ncnc2sc(C(=O)N3CCOCC3)cc12)c1cc(N)cc(C(F)(F)F)c1 [Example 65, N-[(1R)-1-[3-amino-5-(trifluoromethyl)phenyl]ethyl]-6-(morpholine-4-carbonyl)thieno[2,3-d]pyrimidin-4-amine] |  | ≤ 400 | < 1000 | < 1000 | 
21 | Cc1nc(N[C@H](C)c2cc(N)cc(C(F)(F)F)c2)c2cc(C(=O)N3CCN(C)CC3)n(C)c2n1 [Example 37, [4-[[(1R)-1-[3-amino-5-(trifluoromethyl)phenyl]ethyl]amino]-2,7-dimethyl-pyrrolo[2,3-d]pyrimidin-6-yl]-(4-methylpiperazin-1-yl)methanone] |  | > 400 | > 1000 | > 1000 | 
